Reference: US11001558B2, “Asymmetric bisaminoquinolines and bisaminoquinolines with varied linkers as autophagy inhibitors for cancer and other therapy” (THE TRUSTEES OF THE UNIVERSITY OF PENNSYLVANIA, priority 2014, dated 2021)

Legend:
A375P melanoma cells = experiment: 72 hour alamar blue viability assay; format: cell-based; details: spermine or spermidine linker compared with Lys01
Experimental: […]. A375 P cells seeded in a 384 well format were treated with a 10 point dilution of concentrations (0.01 nM-10 uM) (B) Colony formation assay in soft agar. Cells from the indicated melanoma (A375, WM983B, SKMEL5) and pancreatic cancer (PANC1, CAPAN1) cell lines were plated in soft agar. Medium with compound was changed every 48 hours. Crystal violet staining was used to visualize formed colonies after 2 weeks.
A375P melanoma cells were plated in a 384 well format and treated with increasing concentrations of […] derivatives. After 72 hours the cells were analyzed by alamar blue. Complete data is in Table 1, FIG. 10. (A) IC50 according to symmetry of linker (B) IC50 by linker length.
[…]. After 72 hours incubation at 37 degrees, Alamar blue was applied and viability was determined using absorbance. Absorbance was normalized to DMSO control, and a log IC50 was estimated using Graphpad Prism software.
. After 72 hours incubation at 37 degrees, Alamar blue was applied and viability was determined using absorbance. Absorbance was normalized to DMSO control, and a log IC50 was estimated using Graphpad Prism software (FIG. 11, Table 1). LN229 cells produced similar data (data not shown). The increased cytotoxicity of longer linker and asymmetric compounds was confirmed in a 2 week colony formation assay using 5 different cell lines (FIG. 1B). Analysis of the cytotoxicity findings alone elucidated some key features of potential structure activity relationships. First, substitution of the central nitrogen substitution beyond methyl reduces activity. Second, there was no clear advantage of assymetric versus symmetric linkers (FIG. 2A) with regards to cytotoxicity alone. […]

A375 cells [1] = experiment: Apoptosis by annexin V detection; details: for apoptosis (annexin V): 1 uM compound, 24 hour timepoint
Experimental: (C) Apoptosis reflected by annexin V detection in A375 cells treated with 1 uM compound at the 24 hours. (D) Apoptosis reflected by annexin V detection in A375 cells treated with indicated compounds at 3 uM for 24 or 48 hours.

[2] = tested on: A375P mCherry-eGFP-LC3 cells; experiment: Flow cytometry green/red ratio, inhibition of autophagic flux; format: cell-based; details: for inhibition of autophagic flux (green/red ratio): 1 uM compound, 24 hours
Description: PLX: PLX4720; TRA: trametinib.

[3] = tested on: A375P mCherry eGFP-LC3 cells grown into 3 dimensional spheroids; experiment: 3D spheroid growth and invasion in collagen; format: cell-based; details: 3 uM, 72 hours
Experimental: A375P mCherry eGFP-LC3 cells grown into 3 dimensional spheroids and implanted in collagen. After 72 hours of treatment with 3 uM of indicated compound, cells were counterstained with DAPI. (A) fluorescence microscopy was used to visualize autophagy inhibition (bright areas), inhibition of invasion into the collagen and (B) quantification of the DAPI fluorescence indicative of cell death. *p<0.05
The 3D spheroid model has been used extensively to mimic the tumor microenvironment (Ma et al Clin Can Research 2011). Autophagy levels are more reflective of in vivo autophagy dynamics in the 3D models compared to traditional two dimensional cell culture. In this format cancer cells are grown as spheroids and then implanted in a collagen matrix. The spheroids then begin to invade and grow within this tissue microenvironment.

melanoma cell lines = experiment: LC3B and actin immunoblotting (LC3II/actin quantification); details: 1 uM, 24 hours, 3 melanoma cell lines, compared with Lys05
Experimental: Each compound was administered at 1 uM concentrations for 24 hours.
As an initial method of determining the effects of the longer linker compounds on autophagic vesicle accumulation, a series of most cytotoxic dimeric CQ's were used to treat 3 different cell lines (1 uM, 24 hours). Cell lysates were collected and immunoblotting against LC3 and actin as performed (FIG. 4).

A375 cells [4] = experiment: Flow cytometry quantification of reactive oxygen species (DHR_123 fluorescence); details: 1 uM compound, 24 hours
autophagy = details: cited from earlier work

Structure (SMILES)	potency on replacement of the Lys01 linker with longer linkers (A375P melanoma cells)	apoptosis (annexin V) (A375 cells [1])	inhibition of autophagic flux (green/red ratio) [2]	ROS (DHR_123 fluorescence) (A375 cells [4])	further results
Clc1ccc2c(NCCCCNCCCNc3ccnc4cc(Cl)ccc34)ccnc2c1 [Lys21]	significant increases in potency	most apoptosis	most effective at inhibiting autophagic flux		ability to induce apoptosis compared to comparable symmetric compounds (A375 cells [1]): superior; autophagy inhibition compared to comparable symmetric compounds [2]: superior autophagy inhibition
CN(CCCCCCNc1ccnc2cc(Cl)ccc12)CCCCCCNc1ccnc2cc(Cl)ccc12.Cl [Lys75]		most apoptosis	most effective at inhibiting autophagic flux	highest levels of ROS	inhibition of growth and invasion of 3D spheroids [3]: most potent compound at inhibiting growth and invasion; LC3II/actin (melanoma cell lines): most consistent and substantial increase
CN(CCCCN(C)CCCNc1ccnc2cc(Cl)ccc12)CCCNc1ccnc2cc(Cl)ccc12 [Lys 25]	significant increases in potency				
CN(CCCCNc1ccnc2cc(Cl)ccc12)CCCNc1ccnc2cc(Cl)ccc12 [Lys26]	significant increases in potency			highest levels of ROS	
CCN(CCO)CCCC(C)Nc1ccnc2cc(Cl)ccc12 (centres unmarked) [HCQ, hydroxychloroquine]					concentrations required to inhibit autophagy (autophagy): High micromolar concentrations
